Measurements: patent US20220204439A1, “LIPIDS AND LIPID NANOPARTICLE FORMULATIONS FOR DELIVERY OF NUCLEIC ACIDS” (Acuitas Therapeutics, Inc., priority 2015, published 2022)

Tests used:
[1] = Lipid nanoparticle particle size by quasi-elastic light scattering; assay type: physicochemical; conditions: MC3/DSPC/cholesterol/PEG-lipid 50:10:38.5:1.5 LNP with mRNA, Nicomp 370
Description: (§1) Cationic lipid (MC3), DSPC, cholesterol and PEG-lipid were solubilized in ethanol at a molar ratio of 50:10:38.5:1.5. Lipid nanoparticles (LNP) were prepared at a total lipid to mRNA weight ratio of approximately 10:1 to 30:1. Briefly, the mRNA was diluted to 0.2 mg/mL in 10 to 50 mM citrate buffer, pH 4. Syringe pumps were used to mix the ethanolic lipid solution with the mRNA aqueous solution at a ratio of about 1:5 to 1:3 (vol/vol) with total flow rates above 15 ml/min. The ethanol was then removed and the external buffer replaced with PBS by dialysis. Finally, the lipid nanoparticles were filtered through a 0.2 μm pore sterile filter. Lipid nanoparticle particle size was 70-90 nm diameter as determined by quasi-elastic light scattering using a Nicomp 370 submicron particle sizer (Santa Barbara, Calif.).

[2] = test system: luciferase expression in the liver; assay: In vivo luciferase mRNA expression in mouse liver with lipid nanoparticle formulations; design: species or system C57BL/6 mice; conditions: tail vein injection, liver 4 hours after administration, FLuc mRNA; for Liver Luc @ 0.3 mg/kg (ng luc/g liver) / Liver Luc @ 1.0 mg/kg (ng luc/g liver): LNP 50% cationic lipid/10% DSPC/38.5% cholesterol/1.5% PEG-DMA
Description: as §1
Studies were performed in 6-8 week old female C57BL/6 mice (Charles River) according to guidelines established by an institutional animal care committee (ACC) and the Canadian Council on Animal Care (CCAC). Varying doses of mRNA-lipid nanoparticle were systemically administered by tail vein injection and animals euthanized at specific time points (1, 2, 4, 8 and 24 hrs) post-administration. Liver and spleen were collected in pre-weighted tubes, weights determined, immediately snap frozen in liquid nitrogen and stored at −80° C. until processing for analysis.
For liver, approximately 50 mg was dissected for analyses in a 2 mL FastPrep tubes (MP Biomedicals, Solon Ohio). ¼″ ceramic sphere (MP Biomedicals) was added to each tube and 500 μL of Glo Lysis Buffer—GLB (Promega, Madison Wis.) equilibrated to room temperature was added to liver tissue. Liver tissues were homogenized with the FastPrep24 instrument (MP Biomedicals) at 2×6.0 m/s for 15 seconds. Homogenate was incubated at room temperature for 5 minutes prior to a 1:4 dilution in GLB and assessed using SteadyGlo Luciferase assay system (Promega). Specifically, 50 μL of diluted tissue homogenate was reacted with 50 μL of SteadyGlo substrate, shaken for 10 seconds followed by 5 minute incubation and then quantitated using a CentroXS^3 LB 960 luminometer (Berthold Technologies, Germany). The amount of protein assayed was determined by using the BCA protein assay kit (Pierce, Rockford Ill.). Relative luminescence units (RLU) were then normalized to total ug protein assayed. To convert RLU to ng luciferase a standard curve was generated with QuantiLum Recombinant Luciferase (Promega). Based in the data provided in FIG. 1, the four-hour time point was chosen for efficacy evaluation of the lipid formulations (see Example 29).
The FLuc mRNA (L-6107) from Trilink Biotechnologies will express a luciferase protein, originally isolated from the firefly, Photinus pyralis. FLuc is commonly used in mammalian cell culture to measure both gene expression and cell viability. It emits bioluminescence in the presence of the substrate, luciferin. This capped and polyadenylated mRNA is fully substituted with 5-methylcytidine and pseudouridine.
The cationic lipids shown in Table 2 have previously been tested with nucleic acids. For comparative purposes, these lipids were also used to formulate lipid nanoparticles containing the FLuc mRNA (L-6107) using an in line mixing method, as described in example 28 and in PCT/US10/22614, which is hereby incorporated by reference in its entirety. […] Relative activity was determined by measuring luciferase expression in the liver 4 hours following administration via tail vein injection as described in example 28. The activity was compared at a dose of 0.3 and 1.0 mg mRNA/kg and expressed as ng luciferase/g liver measured 4 hours after administration, as described in Example 28. […]

[3] = pKa of formulated cationic lipids in lipid nanoparticles (TNS fluorescence assay); assay type: physicochemical; conditions: probe 2-(p-toluidino)-6-napthalene sulfonic acid (TNS), 1 µM final; formulated in LNP cationic lipid/DSPC/cholesterol/PEG-lipid 50/10/38.5/1.5 mol %; pH of half-maximal TNS fluorescence
Description: As described elsewhere, the pKa of formulated cationic lipids is correlated with the effectiveness of LNPs for delivery of nucleic acids (see Jayaraman et al, Angewandte Chemie, International Edition (2012), 51(34), 8529-8533; Semple et al, Nature Biotechnology 28, 172-176 (2010)). The preferred range of pKa is ˜5 to ˜7. […] Lipid nanoparticles comprising of cationic lipid/DSPC/cholesterol/PEG-lipid (50/10/38.5/1.5 mol %) in PBS at a concentration of 0.4 mM total lipid are prepared using the in-line process as described in Example 28. TNS was prepared as a 100 μM stock solution in distilled water. Vesicles were diluted to 24 μM lipid in 2 mL of buffered solutions containing, 10 mM HEPES, 10 mM MES, 10 mM ammonium acetate, 130 mM NaCl, where the pH ranged from 2.5 to 11. An aliquot of the TNS solution was added to give a final concentration of 1 μM and following vortex mixing fluorescence intensity was measured at room temperature in a SLM Aminco Series 2 Luminescence Spectrophotometer using excitation and emission wavelengths of 321 nm and 445 nm. A sigmoidal best fit analysis was applied to the fluorescence data and the pKa was measured as the pH giving rise to half-maximal fluorescence intensity (see FIG. 2).

Structure (SMILES)	Lipid nanoparticle particle size (diameter) [1]	pKa [3]	Liver Luc @ 0.3 mg/kg (ng luc/g liver) ([2]; 0.3 mg mRNA/kg)	Liver Luc @ 0.3 mg/kg dose ([2]; 0.3 mg mRNA/kg, LNP 50% cationic lipid/10% DSPC/38.5% cholesterol/1.5% PEG-DMG) [ng luciferase/g liver]	Liver Luc @ 1.0 mg/kg (ng luc/g liver) ([2]; 1.0 mg mRNA/kg)	Liver Luc @ 1.0 mg/kg dose ([2]; 1.0 mg mRNA/kg, LNP 50% cationic lipid/10% DSPC/38.5% cholesterol/1.5% PEG-DMG) [ng luciferase/g liver]
CCCCCCCCC(=O)N(CCCN(C)C)C(CCCCCCCCC(=O)OCC(CCCC)CCCCCC)CCCCCCCCC(=O)OCC(CCCC)CCCCCC (centres unmarked) [Compound 9]		6.27	2381 ± 1162		17157 ± 2470	
CCCCCCCCC(=O)N(CCCN(C)C)C(CCCCCCCCCOC(=O)C(CCCC)CCCCCC)CCCCCCCCCOC(=O)C(CCCC)CCCCCC (centres unmarked) [Compound 17]		6.29	837 ± 260		6703 ± 689	
CCCCCCCCC(=O)N(CCCN1CCCC1)C(CCCCCCCCC(=O)OCC(CCCC)CCCCCC)CCCCCCCCC(=O)OCC(CCCC)CCCCCC (centres unmarked) [Compound 15]		6.32	2708 ± 924		15930 ± 4711	
CCCCCCCCC(=O)N(CCCN(C)C)C(CCCCCCCCC(=O)OCC(CCCCCC)CCCCCCCC)CCCCCCCCC(=O)OCC(CCCCCC)CCCCCCCC (centres unmarked) [Compound 13]		6.22	1537 ± 777		10907 ± 2032	
CCCCC/C=C\C/C=C\CCCCCCCCC(CCCCCCCC/C=C\C/C=C\CCCCC)N(CCCN(C)C)C(=O)CCCCCCCC [Compound 5]		6.27	603 ± 167		3640 ± 601	

Continued, in another order:

Lipid nanoparticle particle size (diameter) [1]	pKa [3]	Structure (SMILES)	Liver Luc @ 0.3 mg/kg (ng luc/g liver) ([2]; 0.3 mg mRNA/kg)	Liver Luc @ 0.3 mg/kg dose ([2]; 0.3 mg mRNA/kg, LNP 50% cationic lipid/10% DSPC/38.5% cholesterol/1.5% PEG-DMG) [ng luciferase/g liver]	Liver Luc @ 1.0 mg/kg (ng luc/g liver) ([2]; 1.0 mg mRNA/kg)	Liver Luc @ 1.0 mg/kg dose ([2]; 1.0 mg mRNA/kg, LNP 50% cationic lipid/10% DSPC/38.5% cholesterol/1.5% PEG-DMG) [ng luciferase/g liver]
70-90 nm		CCCCC/C=C\C/C=C\CCCCCCCCC(CCCCCCCC/C=C\C/C=C\CCCCC)OC(=O)CCCN(C)C [MC3, reference compound]	603 ± 150	198 ± 126	2876 ± 622	757 ± 528
	6.57	CCCCCCCCC(CCCCCC)COC(=O)CCCCCC(CCCCCC(=O)OCC(CCCCCC)CCCCCCCC)N(CCCN(C)C)C(=O)CCCCCCCC(=O)OCC (centres unmarked) [Compound 40]	753 ± 156		2203 ± 1555	
	6.14	CCCCCC(CCCC)OC(=O)CCCCCCCC(=O)N(CCCN(C)C)C(CCCCCCCCC(=O)OC(CCCC)CCCC)CCCCCCCCC(=O)OC(CCCC)CCCC (centres unmarked) [Compound 24]	1120 ± 376		7425 ± 2810	
